Laboratory results as given in US20110045101A1, “FUNGICIDAL SUBSTITUTED AZOLES” (E.I. Du Pont De Nemours and Company, priority 2009, published 2011).
Marks after values point to notes of the source that are not given here.

Legend:
Assay type in all cases: in vivo
[1] = test system: Puccinia recondita f. sp. tritici; assay: Test I: wheat leaf rust on wheat seedlings, sprayed the day before inoculation, visual disease rating; conditions: 100 = 100% disease control; for pest or weed control at 200 ppm: Puccinia recondita, 168 h
Outline: (§1)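 Compounds were dissolved in acetone (3% of final volume), then suspended in 50/50 acetone/water with 250 ppm Trem 014 surfactant and sprayed to run-off on test plants. A 200 ppm suspension equals 500 g/ha. Ratings are at 200 ppm unless flagged as 40 ppm.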

Botrytis cinerea = assay: Test C: tomato Botrytis on tomato seedlings, sprayed the day before inoculation, visual disease rating; conditions: 100 = 100% disease control; for pest or weed control at 200 ppm: Botrytis cinerea, 120 h
Outline: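 Tomato seedlings sprayed to run-off with compound suspended in acetone/water with 250 ppm Trem 014 surfactant, at 200 ppm (≈500 g/ha) or 40 ppm where marked, one day before Botrytis cinerea inoculation. Disease rated visually.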

Alternaria solani = assay: Test D: tomato early blight, sprayed the day before inoculation, visual disease rating; conditions: 100 = 100% disease control; for pest or weed control at 200 ppm: Alternaria solani, 168 h
Outline: as §1

Septoria nodorum = assay: Test F: wheat glume blotch on wheat seedlings, sprayed the day before inoculation, visual disease rating; conditions: 100 = 100% disease control; for pest or weed control at 200 ppm: Parastagonospora nodorum, 264 h
Outline: as §1

[2] = test system: Erysiphe graminis f. sp. tritici; assay: Test J: wheat powdery mildew on wheat seedlings, sprayed the day before inoculation, visual disease rating; conditions: 100 = 100% disease control; for pest or weed control at 200 ppm: Blumeria graminis, 168 h
Outline: as §1

Septoria tritici = assay: Test G: wheat leaf blotch on wheat seedlings, sprayed the day before inoculation, visual disease rating; conditions: 100 = 100% disease control; for pest or weed control at 200 ppm: Zymoseptoria tritici, 504 h
Outline: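 Disease was rated visually after Septoria tritici inoculation, 48 h saturated incubation at 24°C and 19 days in a 20°C growth chamber. Inoculation followed one day after run-off spraying of seedlings with compound at 200 ppm (≈500 g/ha) or, where marked, 40 ppm, formulated in acetone/water with surfactant.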

[3] = test system: Puccinia recondita f. sp. tritici; assay: Test H: wheat leaf rust, test suspension sprayed after inoculation of wheat seedlings, visual disease rating; conditions: 100 = 100% disease control; for pest or weed control at 200 ppm: Puccinia recondita, 96 h
Outline: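 Wheat seedlings inoculated with P. recondita spores, held 24 h saturated at 20 °C, then 2 days in growth chamber at 20 °C; compound suspension (acetone/water with Trem 014) sprayed to run-off afterwards. Rated visually; 200 ppm (≈500 g/ha) unless marked *, which denotes 40 ppm.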

[4] = 200 ppm, 0 = no control relative to controls
[5] = 40 ppm (marked *), 0 = no control

Structure (SMILES) | Test I disease control rating [1, 4] [%] | Test C disease control rating (Botrytis cinerea; [4]) [%] | Test D disease control rating (Alternaria solani; [4]) [%] | Test F disease control rating (Septoria nodorum; [4]) [%] | Test J disease control rating [2, 4] [%] | Test G disease control rating (Septoria tritici; [4]) [%] | Test H disease control rating [3, 4] [%] | also measured
Fc1cc(-n2c(Cl)nc(Cl)c2-c2cccc(Br)n2)ccc1Cl [compound 433] | 0 | 50 | 0 | 0 | 0 | 92 | 0 | –
COc1ccc(F)c(-c2c(Br)nc(Br)n2-c2ccc(C)cc2)c1F [compound 511] | 99 | 99 | 99 | 99 | 100 | 99 | 0 | –
COc1ccc(F)c(-c2c(C)nc(Br)n2-c2ccc(Cl)nc2)c1F [compound 735] | 100 | 100 | 100 | 99 | 100 | 100 | 9 | –
Cc1ccc(-n2c(Br)nc(Br)c2-c2c(F)ccc(F)c2Cl)cc1 [compound 460] | – | – | – | – | – | – | – | Test I disease control rating ([1]; 40 ppm (marked *)): 93* %; Test C disease control rating (Botrytis cinerea; 40 ppm (marked *)): 99* %; Test D disease control rating (Alternaria solani; 40 ppm (marked *)): 85* %; Test F disease control rating (Septoria nodorum; 40 ppm (marked *)): 0* %; Test J disease control rating ([2]; 40 ppm (marked *)): 96* %; Test G disease control rating (Septoria tritici; 40 ppm (marked *)): 97* %; Test H disease control rating ([3]; 40 ppm (marked *)): 0* %
COc1cc(F)c(-c2c(C)nc(C)n2-c2ccc(F)cc2)c(F)c1 [compound 522] | – | – | – | – | – | – | – | Test I disease control rating ([1]; 40 ppm (marked *)): 99* %; Test C disease control rating (Botrytis cinerea; 40 ppm (marked *)): 100* %; Test D disease control rating (Alternaria solani; 40 ppm (marked *)): 100* %; Test F disease control rating (Septoria nodorum; 40 ppm (marked *)): 0* %; Test J disease control rating ([2]; 40 ppm (marked *)): 96* %; Test G disease control rating (Septoria tritici; 40 ppm (marked *)): 98* %; Test H disease control rating ([3]; 40 ppm (marked *)): 0* %
Cc1ccc(-n2c(Cl)nc(C)c2-c2c(F)ccc(F)c2Cl)cc1 [compound 495] | – | – | – | – | – | – | – | Test I disease control rating ([1]; 40 ppm (marked *)): 99* %; Test C disease control rating (Botrytis cinerea; 40 ppm (marked *)): 97* %; Test D disease control rating (Alternaria solani; 40 ppm (marked *)): 99* %; Test F disease control rating (Septoria nodorum; 40 ppm (marked *)): 0* %; Test J disease control rating ([2]; 40 ppm (marked *)): 100* %; Test G disease control rating (Septoria tritici; 40 ppm (marked *)): 31* %; Test H disease control rating ([3]; 40 ppm (marked *)): 0* %
COc1cc(F)c(-c2c(Cl)ncn2Cc2ccc(Cl)cc2)c(F)c1 [compound 268] | – | – | – | – | – | – | – | Test I disease control rating ([1]; 200 ppm, 0 = no control): 99%; Test C disease control rating (Botrytis cinerea; 200 ppm, 0 = no control): 99%; Test D disease control rating (Alternaria solani; 200 ppm, 0 = no control): 100%; Test F disease control rating (Septoria nodorum; 200 ppm, 0 = no control): 98%; Test J disease control rating ([2]; 200 ppm, 0 = no control): 75%; Test G disease control rating (Septoria tritici; 200 ppm, 0 = no control): 87%; Test H disease control rating ([3]; 200 ppm, 0 = no control): 63%
Fc1ccc(F)c(-c2c(Br)nc(Cl)n2-c2ccc(Cl)cc2)c1F [compound 351] | 100 | 100 | 100 | 99 | 100 | 93 | 54 | –
Fc1cccc(-n2cnc(Cl)c2-c2c(F)cc(F)cc2F)c1 [compound 362] | 83 | 100 | 99 | 0 | 49 | 86 | 0 | –
Fc1cc(F)c(-c2c(Cl)nc(Br)n2-c2cccc(OC(F)F)c2)c(F)c1 [compound 603] | 100 | 99 | 100 | 99 | 100 | 99 | 98 | –
COc1ccc(-c2c(Cl)nc(Cl)n2-c2ccc(Cl)cc2Cl)cc1 [compound 698] | 83 | 99 | 0 | 0 | 56 | 99 | 0 | –
Fc1cccc(F)c1-c1c(Cl)nc(Br)n1-c1ccc(Cl)nc1 [compound 711] | 99 | 100 | 100 | 99 | 99 | 99 | 98 | –
Cc1nc(Cl)n(-c2ccc(Cl)cc2)c1-c1c(F)ccc(F)c1Cl [compound 414] | – | – | – | – | – | – | – | Test I disease control rating [1, 5]: 93* %; Test C disease control rating (Botrytis cinerea; [5]): 99* %; Test D disease control rating (Alternaria solani; [5]): 99* %; Test F disease control rating (Septoria nodorum; [5]): 0* %; Test J disease control rating [2, 5]: 100* %; Test G disease control rating (Septoria tritici; [5]): 96* %; Test H disease control rating [3, 5]: 0* %
Cc1nn(C)c(Cc2ccc(Cl)cc2)c1-c1ccc(F)cc1Cl [compound 344] | 89 | 100 | 0 | 0 | 99 | 95 | 17 | –
Cc1ncc(-c2ccc(Cl)cc2)n1-c1c(F)cc([N+](=O)[O-])cc1F [compound 700] | – | – | – | – | – | – | – | Test I disease control rating ([1]; 40 ppm (marked *)): 0* %; Test C disease control rating (Botrytis cinerea; 40 ppm (marked *)): 93* %; Test D disease control rating (Alternaria solani; 40 ppm (marked *)): 0* %; Test F disease control rating (Septoria nodorum; 40 ppm (marked *)): 0* %; Test J disease control rating ([2]; 40 ppm (marked *)): 0* %; Test G disease control rating (Septoria tritici; 40 ppm (marked *)): 53* %; Test H disease control rating ([3]; 40 ppm (marked *)): 0* %
COc1cc(F)c(-c2c(Cl)nc(C=NO)n2-c2ccc(F)cc2)c(F)c1 [Compound 349, 4-chloro-5-(2,6-difluoro-4-methoxyphenyl)-1-(4-fluorophenyl)-1H-imidazole-2-carboxaldehyde oxime] | – | – | – | – | – | – | – | pest or weed control at 200 ppm [1, 4]: 99%; pest or weed control at 200 ppm (Botrytis cinerea; [4]): 100%; pest or weed control at 200 ppm (Alternaria solani; [4]): 99%; pest or weed control at 200 ppm (Septoria nodorum; [4]): 99%; pest or weed control at 200 ppm [2, 4]: 95%; pest or weed control at 200 ppm (Septoria tritici; [4]): 88%; pest or weed control at 200 ppm [3, 4]: 0%
COc1cc(F)c(-c2c(Cl)ncn2-c2ccc(F)c(F)c2)c(F)c1 [compound 498] | 100 | 99 | 100 | 95 | 100 | 95 | 0 | –
COc1cc(F)c(-c2c(Cl)nc(Cl)n2-c2ccc(OC(F)F)cc2)c(F)c1 [compound 566] | 100 | 100 | 100 | 100 | 100 | 97 | 97 | –
CCOc1cc(F)c(-c2c(Cl)ncn2-c2cccc(F)c2)c(F)c1 [compound 703] | 98 | 100 | 100 | 100 | 97 | 99 | 39 | –
COc1cc(F)c(-c2c(C)nc(Br)n2-c2ccc(C(F)(F)F)nc2)c(F)c1 [compound 731] | 99 | 99 | 100 | 99 | 100 | 100 | 0 | –
Cc1nc(Cl)n(-c2ccc(Cl)c(F)c2)c1-c1cncc(Br)c1 [compound 356] | 0 | 98 | 57 | 0 | 0 | 72 | 17 | –
CCc1ccc(-n2c(C)nc(Cl)c2-c2c(F)ccc(OC)c2F)cc1 [compound 479] | 99 | 100 | 100 | 95 | 100 | 94 | 0 | –
COc1cc(F)c(-c2c(Cl)nc(Br)n2-c2ccc(C(F)(F)F)nc2)c(F)c1 [Compound 707, 5-[2-bromo-4-chloro-5-(2,6-difluoro-4-methoxyphenyl)-1H-imidazol-1-yl]-2-(trifluoromethyl)pyridine] | – | – | – | – | – | – | – | pest or weed control at 200 ppm [1, 4]: 100%; pest or weed control at 200 ppm (Botrytis cinerea; [4]): 100%; pest or weed control at 200 ppm (Alternaria solani; [4]): 100%; pest or weed control at 200 ppm (Septoria nodorum; [4]): 100%; pest or weed control at 200 ppm [2, 4]: 100%; pest or weed control at 200 ppm (Septoria tritici; [4]): 99%; pest or weed control at 200 ppm [3, 4]: 67%
